Results on 3 compounds are retold here after article PMC8080777, “Discovery, optimization, and evaluation of non-bile acid FXR/TGR5 dual agonists” (Scientific Reports, 2021).

Broadly, the pEC50 is the EC50 on a negative log10 scale, so that one unit is a factor of ten. The low end stands for a high EC50, the high end for a low EC50. As a reminder, the inhibition is the change of the read-out against control, counted positive when it falls.

pEC50: −log10 of the molar value.

The nature of one data set: OGTT blood glucose. The format is in vivo. To be noted: single oral 100 mg/kg, overnight-fasted C57 mice, 2 g/kg glucose one hour later, blood 15 min after loading. The protocol: To measure blood glucose levels, 100 mg/kg of test compounds 20p and 20q or vehicle were administered orally to overnight-fasted C57 mice (n = 5 mice/group, control; n = 10). One hour later, all mice were challenged with 2 g/kg glucose, and blood samples were collected after 15 min of glucose loading. The blood glucose levels were measured using LabAssay Glucose (FUJIFILM Wako Pure Chemical Corporation, Osaka City, Osaka, Japan)[56].
Amersham Place Little Chalfont Buckinghamshire, HP7 9NA UK), and cDNA was synthesized using ReverTra Ace qPCR RT Master Mix (Toyobo Co., Ltd., Osaka City, Osaka, Japan). Real-time PCR was performed using a CFX96 Touch Real-Time PCR Analysis System (CFX Manager, Bio-Rad, 1000 Alfred Nobel Drive, Hercules, CA, USA), and the mRNA expression levels of SHP and CYP7A1, the target gene s of FXR, were measured using the intercalator […]
In vivo assay protocol (GLP-1)
Measurement of GLP-1 secretion: To measure plasma GLP-1 levels, 100 mg/kg of compounds 20p and 20q were administered orally to overnight -fasted C57 mice (n=5 animals/group). One hour later, all mice were challenged with 2 g/kg glucose, and blood samples were collected after 15 min of glucose challenge test. Plasma GLP-1 levels were measured using the GLP-1 ELISA Kit Wako, High Sensitive (FUJIFILM Wako Pure Chemical Corporation, Osaka city, Osaka, […]
In vivo assay protocol (OGTT test) […]

The next data set concerns the target T1, GPR119 (Homo sapiens, UniProt Q8TDV5).
T1 construct: Eurofine Cerep / Eurofine Panlabs Discovery Services
Kind of data set: Selectivity, cellular functional assay. The format is cell-based. The text has this:
(§1) Compound 20p was screened against a broad panel of NRs and GPCRs to determine its agonist activity in vitro. […]
(§2) The selectivity tests of compound 20p were investigated by Eurofine Cerep (86600, Celle-Levescault, France) and Eurofine Panlabs Discovery Services (No. 25, Wugong, 6th Road, Wugu District, New Taipai City, Taiwan). Compound binding was caluculated as a % inhibition of the binding of radioactively labeled ligand specific for each target. Cellular agonist effect wa calculated as a % of control response to a known reference agonist for each target and cellular antagonist effect as caluculated as a % inhibition of control reference agonist response for each target at 30 µM of compound 20p.
(§3) 12.3%; CAR -2.5%, PPAR alpha 0.0%; PPAR delta -3.6%; PPAR gamma -1.0%; PXR 4.5%; ER alpha -16.6%; ER beta 17% at 30 µM.

A further data set deals with T2, GPR120 (Homo sapiens, UniProt Q5NUL3).
T2 construct: Eurofine Cerep / Eurofine Panlabs Discovery Services
T2 sequence (Q5NUL3 whole entry): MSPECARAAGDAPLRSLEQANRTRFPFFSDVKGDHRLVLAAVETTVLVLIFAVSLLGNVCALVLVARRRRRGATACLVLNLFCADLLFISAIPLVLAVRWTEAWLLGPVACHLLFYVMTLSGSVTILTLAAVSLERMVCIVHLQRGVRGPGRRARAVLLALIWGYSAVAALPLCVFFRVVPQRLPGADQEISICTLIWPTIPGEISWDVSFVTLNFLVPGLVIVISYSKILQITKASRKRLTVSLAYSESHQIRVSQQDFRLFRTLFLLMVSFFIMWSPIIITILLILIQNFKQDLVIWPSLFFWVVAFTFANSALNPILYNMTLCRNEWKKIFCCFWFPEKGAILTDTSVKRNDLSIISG
Kind of data set: Selectivity, cellular functional assay. Type of data set: cell-based.
Source text: as §1, §2, §3

In the next data set the target is T3, GPR40 (Homo sapiens, UniProt O14842).
T3 construct: Eurofine Cerep / Eurofine Panlabs Discovery Services
T3 sequence (O14842 whole entry): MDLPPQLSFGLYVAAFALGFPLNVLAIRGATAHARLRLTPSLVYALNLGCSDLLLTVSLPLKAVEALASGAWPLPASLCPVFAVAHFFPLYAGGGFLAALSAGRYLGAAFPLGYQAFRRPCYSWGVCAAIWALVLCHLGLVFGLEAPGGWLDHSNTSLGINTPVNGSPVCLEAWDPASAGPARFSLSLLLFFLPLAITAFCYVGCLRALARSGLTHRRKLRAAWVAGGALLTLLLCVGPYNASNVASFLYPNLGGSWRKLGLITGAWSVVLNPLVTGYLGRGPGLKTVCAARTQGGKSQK
Kind of data set: Selectivity, cellular functional assay. Type of data set: cell-based.
Source text: as §1, §2, §3

The target of a further data set is T4, CAR (Homo sapiens, UniProt Q14994).
T4 construct: Eurofine Cerep / Eurofine Panlabs Discovery Services
T4 sequence (Q14994 whole entry): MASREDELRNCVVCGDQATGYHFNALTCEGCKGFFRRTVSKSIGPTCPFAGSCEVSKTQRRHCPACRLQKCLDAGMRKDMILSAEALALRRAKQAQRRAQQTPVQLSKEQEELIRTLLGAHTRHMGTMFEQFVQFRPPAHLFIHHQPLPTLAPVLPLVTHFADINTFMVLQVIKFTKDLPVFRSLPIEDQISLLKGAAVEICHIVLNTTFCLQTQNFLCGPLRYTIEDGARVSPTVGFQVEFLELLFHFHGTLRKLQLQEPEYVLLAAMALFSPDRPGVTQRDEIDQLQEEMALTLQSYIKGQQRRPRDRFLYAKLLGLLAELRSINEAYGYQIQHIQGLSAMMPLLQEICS
Kind of data set: Selectivity, NR functional assay. Type of data set: cell-based.
Source text: as §1, §2, §3

In the next data set the target is T5, LXR alpha (Homo sapiens, UniProt Q13133).
T5 construct: Eurofine Cerep / Eurofine Panlabs Discovery Services
T5 sequence (Q13133 whole entry): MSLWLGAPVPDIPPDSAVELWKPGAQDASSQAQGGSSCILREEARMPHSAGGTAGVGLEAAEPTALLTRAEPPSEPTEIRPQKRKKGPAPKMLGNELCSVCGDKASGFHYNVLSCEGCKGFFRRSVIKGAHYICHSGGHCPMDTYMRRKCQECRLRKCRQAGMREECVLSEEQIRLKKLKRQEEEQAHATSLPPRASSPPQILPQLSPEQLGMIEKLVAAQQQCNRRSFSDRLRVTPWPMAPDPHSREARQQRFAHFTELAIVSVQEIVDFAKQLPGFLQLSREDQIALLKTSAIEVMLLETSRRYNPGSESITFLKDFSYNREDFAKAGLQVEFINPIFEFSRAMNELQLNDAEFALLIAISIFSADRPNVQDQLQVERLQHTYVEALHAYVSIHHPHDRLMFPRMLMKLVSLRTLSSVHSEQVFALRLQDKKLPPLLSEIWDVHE
Kind of data set: Selectivity, NR functional assay. Type of data set: cell-based.
Source text: as §1, §2, §3

For another data set, the target named is T6, LXR beta (Homo sapiens, UniProt P55055).
T6 construct: Eurofine Cerep / Eurofine Panlabs Discovery Services
Kind of data set: Selectivity, NR functional assay. Type of data set: cell-based.
Source text: as §1, §2, §3

The target in another data set is T7, PPAR alpha (Homo sapiens, UniProt Q07869).
T7 construct: Eurofine Cerep / Eurofine Panlabs Discovery Services
T7 sequence (Q07869 whole entry): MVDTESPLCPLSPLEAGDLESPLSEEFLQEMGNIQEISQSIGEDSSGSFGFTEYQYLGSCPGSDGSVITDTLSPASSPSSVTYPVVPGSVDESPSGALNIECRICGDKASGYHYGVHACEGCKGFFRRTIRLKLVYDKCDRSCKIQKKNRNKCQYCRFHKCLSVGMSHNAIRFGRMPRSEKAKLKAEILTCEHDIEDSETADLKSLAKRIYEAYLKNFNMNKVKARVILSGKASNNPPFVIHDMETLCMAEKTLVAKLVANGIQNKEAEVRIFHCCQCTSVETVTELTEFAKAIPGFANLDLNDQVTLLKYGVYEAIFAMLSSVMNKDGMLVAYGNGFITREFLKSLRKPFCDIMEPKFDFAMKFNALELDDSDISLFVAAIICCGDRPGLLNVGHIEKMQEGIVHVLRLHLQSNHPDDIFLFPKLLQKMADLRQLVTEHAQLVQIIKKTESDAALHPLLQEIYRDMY
Kind of data set: Selectivity, NR functional assay. The format is cell-based.
Source text: as §1, §2, §3

The next data set addresses T8, PPAR delta (Homo sapiens, UniProt Q03181).
T8 construct: Eurofine Cerep / Eurofine Panlabs Discovery Services
Kind of data set: Selectivity, NR functional assay. The format is cell-based.
Source text: as §1, §2, §3

Another data set has as its target T9, PPAR gamma (Homo sapiens, UniProt P37231).
T9 construct: Eurofine Cerep / Eurofine Panlabs Discovery Services
Kind of data set: Selectivity, NR functional assay. The format is cell-based.
Source text: as §1, §2, §3

The target in the next data set is T10, PXR (Homo sapiens, UniProt O75469).
T10 construct: Eurofine Cerep / Eurofine Panlabs Discovery Services
Kind of data set: Selectivity, NR functional assay. Type of data set: cell-based.
Source text: as §1, §2, §3

The target of the next data set is T11, ER alpha (Homo sapiens, UniProt P03372).
T11 construct: Eurofine Cerep / Eurofine Panlabs Discovery Services
T11 sequence (P03372 whole entry): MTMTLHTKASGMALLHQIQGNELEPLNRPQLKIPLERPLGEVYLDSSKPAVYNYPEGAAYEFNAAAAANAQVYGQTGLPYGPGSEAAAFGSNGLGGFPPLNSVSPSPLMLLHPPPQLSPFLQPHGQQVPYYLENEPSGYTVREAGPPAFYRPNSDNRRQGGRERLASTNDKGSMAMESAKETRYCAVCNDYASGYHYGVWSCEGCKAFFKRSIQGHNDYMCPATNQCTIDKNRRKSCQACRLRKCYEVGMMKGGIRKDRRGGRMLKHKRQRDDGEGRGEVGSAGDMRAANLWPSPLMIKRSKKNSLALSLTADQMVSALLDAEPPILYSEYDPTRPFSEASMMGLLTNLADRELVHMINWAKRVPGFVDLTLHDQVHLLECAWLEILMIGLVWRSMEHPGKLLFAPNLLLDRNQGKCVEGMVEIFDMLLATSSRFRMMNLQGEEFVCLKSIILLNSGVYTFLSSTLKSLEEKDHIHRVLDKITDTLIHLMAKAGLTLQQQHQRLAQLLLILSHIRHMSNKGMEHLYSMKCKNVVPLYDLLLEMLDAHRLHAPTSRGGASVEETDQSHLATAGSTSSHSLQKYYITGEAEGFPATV
Kind of data set: Selectivity, binding assay.
Source text: as §1, §2, §3

Another data set concerns the target T12, ER beta (Homo sapiens, UniProt Q92731).
T12 construct: Eurofine Cerep / Eurofine Panlabs Discovery Services
Kind of data set: Selectivity, binding assay.
Source text: as §1, §2, §3

The target in the next data set is T13, RXR alpha (Homo sapiens, UniProt P19793).
T13 construct: Eurofine Cerep / Eurofine Panlabs Discovery Services
T13 sequence (P19793 whole entry): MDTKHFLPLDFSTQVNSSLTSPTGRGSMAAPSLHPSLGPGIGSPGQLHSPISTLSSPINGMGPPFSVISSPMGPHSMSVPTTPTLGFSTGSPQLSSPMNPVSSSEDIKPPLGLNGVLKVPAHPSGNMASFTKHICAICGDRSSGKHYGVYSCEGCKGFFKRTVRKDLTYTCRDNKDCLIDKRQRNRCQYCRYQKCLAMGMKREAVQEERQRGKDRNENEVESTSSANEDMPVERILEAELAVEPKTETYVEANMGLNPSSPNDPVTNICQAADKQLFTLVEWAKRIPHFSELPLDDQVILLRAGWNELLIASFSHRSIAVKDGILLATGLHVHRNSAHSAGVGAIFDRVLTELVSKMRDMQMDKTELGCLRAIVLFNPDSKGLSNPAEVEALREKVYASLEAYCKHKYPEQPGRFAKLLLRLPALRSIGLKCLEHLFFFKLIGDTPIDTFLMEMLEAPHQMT
Kind of data set: Selectivity, binding assay.
Source text: as §1, §2, §3

The test system of the next data set is GPCRs and NRs. Kind of data set: Broad panel of NRs and GPCRs. The settings on record: in vitro agonist activity.
Source text: as §1, §2, §3

For a further data set, the system named is FXR. To be noted: cited from earlier work.

T9 sequence (P37231 whole entry): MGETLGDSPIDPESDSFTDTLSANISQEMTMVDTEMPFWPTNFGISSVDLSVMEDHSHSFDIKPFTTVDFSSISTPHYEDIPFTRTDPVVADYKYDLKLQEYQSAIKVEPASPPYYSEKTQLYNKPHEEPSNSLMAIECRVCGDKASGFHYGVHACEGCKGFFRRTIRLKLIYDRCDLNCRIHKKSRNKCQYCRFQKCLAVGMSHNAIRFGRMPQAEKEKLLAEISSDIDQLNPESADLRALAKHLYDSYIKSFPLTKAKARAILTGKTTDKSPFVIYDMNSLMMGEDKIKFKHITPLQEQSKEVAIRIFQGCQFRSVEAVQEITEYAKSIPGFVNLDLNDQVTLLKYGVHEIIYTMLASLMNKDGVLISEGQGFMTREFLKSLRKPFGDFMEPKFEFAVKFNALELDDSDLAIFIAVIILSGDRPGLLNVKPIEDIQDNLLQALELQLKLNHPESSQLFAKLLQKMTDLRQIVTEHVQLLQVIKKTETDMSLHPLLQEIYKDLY
T8 sequence (Q03181 whole entry): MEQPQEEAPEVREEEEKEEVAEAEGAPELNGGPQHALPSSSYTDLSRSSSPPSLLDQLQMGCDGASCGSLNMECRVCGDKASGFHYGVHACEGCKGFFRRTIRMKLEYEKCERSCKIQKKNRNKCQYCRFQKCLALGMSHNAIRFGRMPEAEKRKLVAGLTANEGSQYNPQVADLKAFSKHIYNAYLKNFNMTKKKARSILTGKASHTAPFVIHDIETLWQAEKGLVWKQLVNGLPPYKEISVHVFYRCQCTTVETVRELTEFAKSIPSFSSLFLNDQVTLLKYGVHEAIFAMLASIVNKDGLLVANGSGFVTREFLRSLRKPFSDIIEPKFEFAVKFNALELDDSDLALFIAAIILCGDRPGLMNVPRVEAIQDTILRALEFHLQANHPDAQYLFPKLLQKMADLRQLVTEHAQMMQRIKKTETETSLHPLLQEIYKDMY
T1 sequence (Q8TDV5 whole entry): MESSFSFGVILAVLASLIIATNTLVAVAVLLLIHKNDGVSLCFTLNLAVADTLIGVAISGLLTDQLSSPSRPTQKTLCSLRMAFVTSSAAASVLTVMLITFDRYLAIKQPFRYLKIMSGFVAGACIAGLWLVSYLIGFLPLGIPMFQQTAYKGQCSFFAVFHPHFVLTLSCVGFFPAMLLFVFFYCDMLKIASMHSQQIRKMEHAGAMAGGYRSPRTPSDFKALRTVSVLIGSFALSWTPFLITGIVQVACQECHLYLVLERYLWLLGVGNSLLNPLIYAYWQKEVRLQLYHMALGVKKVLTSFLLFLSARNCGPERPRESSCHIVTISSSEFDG
T12 sequence (Q92731 whole entry): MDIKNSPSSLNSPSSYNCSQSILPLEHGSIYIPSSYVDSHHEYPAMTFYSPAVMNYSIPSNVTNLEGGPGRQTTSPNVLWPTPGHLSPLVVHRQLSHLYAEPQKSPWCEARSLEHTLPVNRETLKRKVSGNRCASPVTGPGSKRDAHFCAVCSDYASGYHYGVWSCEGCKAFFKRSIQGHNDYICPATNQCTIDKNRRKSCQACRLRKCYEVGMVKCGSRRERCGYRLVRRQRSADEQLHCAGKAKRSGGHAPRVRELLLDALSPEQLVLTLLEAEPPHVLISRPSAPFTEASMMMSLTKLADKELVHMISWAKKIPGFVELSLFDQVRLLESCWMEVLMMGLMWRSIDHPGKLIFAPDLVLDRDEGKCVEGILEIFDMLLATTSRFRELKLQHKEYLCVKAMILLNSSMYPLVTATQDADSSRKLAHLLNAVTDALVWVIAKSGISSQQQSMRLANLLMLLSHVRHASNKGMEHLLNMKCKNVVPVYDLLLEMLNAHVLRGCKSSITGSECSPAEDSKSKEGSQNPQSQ

As to `COc1cc(Cl)cc(N(CC23CCC(c4ccc(OC)c(C#N)c4)(CC2)CC3)C(=O)c2ccncc2C)c1` [Compound 20p], the “Blood glucose level on OGTT” value in “OGTT blood glucose” is “robustly lowered the blood glucose level”. Besides, the activity at 30 µM is 1.8% on GPR119 (30 µM, read-out: GPR119 cellular agonist effect, % of control response to reference agonist); -5.2% at GPR120 (30 µM, read-out: GPR120 cellular agonist effect, % of control response to reference agonist); 5.9% at GPR40 (30 µM, read-out: GPR40 cellular agonist effect, % of control response to reference agonist); -2.5% at CAR (30 µM, read-out: CAR agonist effect, % of control response to reference agonist); 0.2% at LXR alpha (30 µM, read-out: LXR alpha agonist effect, % of control response to reference agonist); 3.7% at LXR beta (30 µM, read-out: LXR beta agonist effect, % of control response to reference agonist). The activity at 30 µM was 0% at PPAR alpha (30 µM, read-out: PPAR alpha agonist effect, % of control response to reference agonist); -3.6% at PPAR delta (30 µM, read-out: PPAR delta agonist effect, % of control response to reference agonist); -1% at PPAR gamma (30 µM, read-out: PPAR gamma agonist effect, % of control response to reference agonist); 4.5% at PXR (30 µM, read-out: PXR agonist effect, % of control response to reference agonist). The pEC50 at GPR119 (cellular functional assay), at GPR120 (cellular functional assay), at GPR40 (cellular functional assay), on CAR (NR functional assay), at LXR alpha (NR functional assay) and at LXR beta (NR functional assay) was less than 4.52 in each case. Moreover, the pEC50 on PPAR alpha (NR functional assay), on PPAR delta (NR functional assay), on PPAR gamma (NR functional assay), on PXR (NR functional assay), at ER alpha (binding assay) and on ER beta (binding assay) was less than 4.52 throughout. Moreover, on RXR alpha (binding assay), the negative logarithm of the EC50 (pEC50) was less than 4.52. Further, the inhibition at 30 µM was -16.6% on ER alpha (30 µM, read-out: ER alpha binding, % inhibition of the binding of radioactively labeled ligand); 17% on ER beta (30 µM, read-out: ER beta binding, % inhibition of the binding of radioactively labeled ligand); -12.3% on RXR alpha (30 µM, read-out: RXR alpha binding, % inhibition of the binding of radioactively labeled ligand). Moreover, the “Off-target activity against GPCRs and NRs (in words)” value in the data set with GPCRs and NRs was “no significant off-target activity against GPCRs and NRs”.
As to `COC(=O)/C=C/c1cccc(N(Cc2ccc(-c3ccc(N(C)C)cc3)cc2)C(=O)C2CCCCC2)c1` [Compound 7, Fexaramine, reference compound], the “Reported FXR activity (in words)” value in the data set with FXR is “specific and potent partial agonist against FXR”.
Regarding `COc1ccc(C23CCC(CN(C(=O)c4ccncc4C)c4cc(Cl)cc(Cl)c4)(CC2)CC3)cc1C#N` [Compound 20q], the “Blood glucose level on OGTT” value in “OGTT blood glucose” is “did not reduce the blood glucose level”.
